From PubChem BioAssay AID248 (DTP/NCI, 2004)
Inconclusive results and toxic doses are left out. Cut-off read from the data, not from the text of the source: active = T/C of 150% or more; inactive = T/C below 125%.

Tested on: L1210 leukemia ip in BDF1 mice, survival T/C
Assay: NCI In Vivo Anticancer Drug Screen. Data for tumor model L1210 Leukemia (intraperitoneal) in B6D2F1 (BDF1) mice
Conditions: higher = longer survival
Summary of the method: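 Transplantable tumor model; survival measured in treated vs vehicle control mice. Value = treated/control.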

[1] = endpoint: mean survival time, dose: 100.0 mg/kg/injection, schedule: Q04DX003 (ip), vehicle: saline with Tween-80
[2] = endpoint: mean survival time, dose: 200.0 mg/kg/injection, schedule: Q04DX003 (ip), vehicle: saline with Tween-80
[3] = endpoint: mean survival time, dose: 100.0 mg/kg/injection, schedule: Q04DX003 (ip), vehicle: saline
[4] = endpoint: mean survival time, dose: 12.5 mg/kg/injection, schedule: Q01DX009 (ip), vehicle: saline with Tween-80
[5] = endpoint: mean survival time, dose: 50.0 mg/kg/injection, schedule: Q01DX009 (ip), vehicle: saline with Tween-80

Measured: T/C

NC(=O)Cc1cc(=O)[nH]c(=O)[nH]1
inactive: endpoint: mean survival time, dose: 50.0 mg/kg/injection, schedule: Q01DX009 (ip), vehicle: saline 107 % of control | endpoint: mean survival time, dose: 50.0 mg/kg/injection, schedule: Q04DX003 (ip), vehicle: saline with Tween-80 96 % of control | endpoint: mean survival time, dose: 100.0 mg/kg/injection, schedule: Q01DX009 (ip), vehicle: saline 102 % of control | [1] 97 % of control | endpoint: mean survival time, dose: 200.0 mg/kg/injection, schedule: Q01DX009 (ip), vehicle: saline 100 % of control | [2] 94 % of control | endpoint: mean survival time, dose: 400.0 mg/kg/injection, schedule: Q01DX009 (ip), vehicle: saline 97 % of control | endpoint: mean survival time, dose: 400.0 mg/kg/injection, schedule: Q04DX003 (ip), vehicle: saline with Tween-80 91 % of control

CC1(C)CC(=NNC2=NC=NC3=NC=NC32)CC(C)(C)N1O (configuration not stated)
inactive: endpoint: mean survival time, dose: 25.0 mg/kg/injection, schedule: Q04DX003 (ip), vehicle: saline 98 % of control | endpoint: mean survival time, dose: 50.0 mg/kg/injection, schedule: Q04DX003 (ip), vehicle: saline 102 % of control | [3] 102 % of control

CSc1ccc(NC(=O)Nc2ccc(N=Nc3ccccc3)cc2)cc1
inactive: [4] 95 % of control | endpoint: mean survival time, dose: 25.0 mg/kg/injection, schedule: Q01DX009 (ip), vehicle: saline with Tween-80 92 % of control | [5] 95 % of control | endpoint: mean survival time, dose: 50.0 mg/kg/injection, schedule: Q04DX003 (ip), vehicle: Klucel (hydroxypropylcellulose) (HPC) 87 % of control | endpoint: mean survival time, dose: 75.0 mg/kg/injection, schedule: Q01DX009 (ip), vehicle: saline with Tween-80 106 % of control | endpoint: mean survival time, dose: 100.0 mg/kg/injection, schedule: Q01DX001 (ip), vehicle: other 89 % of control | endpoint: mean survival time, dose: 115.0 mg/kg/injection, schedule: Q01DX009 (ip), vehicle: saline with Tween-80 92 % of control | endpoint: mean survival time, dose: 170.0 mg/kg/injection, schedule: Q01DX009 (ip), vehicle: saline with Tween-80 90 % of control | endpoint: mean survival time, dose: 200.0 mg/kg/injection, schedule: Q01DX001 (ip), vehicle: other 89 % of control

CCOC(=O)NC(C)(C)CN(C(=O)OCC)C(C)(C)CO
inactive: [3] 104 % of control | endpoint: mean survival time, dose: 200.0 mg/kg/injection, schedule: Q04DX003 (ip), vehicle: saline 104 % of control

O=CC(O)CO (configuration not stated)
inactive: endpoint: mean survival time, dose: 62.5 mg/kg/injection, schedule: Q01DX009 (ip), vehicle: carboxymethylcellulose (CMC) 102 % of control | endpoint: mean survival time, dose: 108.0 mg/kg/injection, schedule: Q01DX Z (ip), vehicle: other 95 % of control | endpoint: mean survival time, dose: 125.0 mg/kg/injection, schedule: Q01DX001 (ip), vehicle: carboxymethylcellulose (CMC) 98 % of control | endpoint: mean survival time, dose: 125.0 mg/kg/injection, schedule: Q01DX009 (ip), vehicle: carboxymethylcellulose (CMC) 116 % of control | endpoint: mean survival time, dose: 180.0 mg/kg/injection, schedule: Q01DX Z (ip), vehicle: other 112 % of control | endpoint: mean survival time, dose: 250.0 mg/kg/injection, schedule: Q01DX001 (ip), vehicle: carboxymethylcellulose (CMC) 105 % of control | endpoint: mean survival time, dose: 250.0 mg/kg/injection, schedule: Q01DX009 (ip), vehicle: carboxymethylcellulose (CMC) 116 % of control | endpoint: mean survival time, dose: 300.0 mg/kg/injection, schedule: Q01DX Z (ip), vehicle: other 113 % of control | endpoint: mean survival time, dose: 500.0 mg/kg/injection, schedule: Q01DX001 (ip), vehicle: carboxymethylcellulose (CMC) 100 % of control | endpoint: mean survival time, dose: 500.0 mg/kg/injection, schedule: Q01DX009 (ip), vehicle: carboxymethylcellulose (CMC) 118 % of control | endpoint: mean survival time, dose: 500.0 mg/kg/injection, schedule: Q01DX Z (ip), vehicle: other 115 % of control | endpoint: mean survival time, dose: 833.0 mg/kg/injection, schedule: Q01DX Z (ip), vehicle: other 114 % of control | endpoint: mean survival time, dose: 1000.0 mg/kg/injection, schedule: Q01DX001 (ip), vehicle: carboxymethylcellulose (CMC) 110 % of control | endpoint: median survival time, dose: 352.0 mg/kg/injection, schedule: Q01DX005 (ip), vehicle: saline sonified 122 % of control | endpoint: median survival time, dose: 440.0 mg/kg/injection, schedule: Q01DX005 (ip), vehicle: other 118 % of control | endpoint: median survival time, dose: 440.0 mg/kg/injection, schedule: Q01DX005 (ip), vehicle: saline sonified 116 % of control | endpoint: median survival time, dose: 550.0 mg/kg/injection, schedule: Q01DX005 (ip), vehicle: saline sonified 122 % of control | endpoint: median survival time, dose: 688.0 mg/kg/injection, schedule: Q01DX005 (ip), vehicle: other 107 % of control | endpoint: median survival time, dose: 688.0 mg/kg/injection, schedule: Q01DX005 (ip), vehicle: saline sonified 111 % of control | endpoint: median survival time, dose: 860.0 mg/kg/injection, schedule: Q01DX005 (ip), vehicle: other 51 % of control | endpoint: median survival time, dose: 1053.0 mg/kg/injection, schedule: Q01DX001 (ip), vehicle: other 119 % of control | endpoint: median survival time, dose: 1053.0 mg/kg/injection, schedule: Q01DX001 (ip), vehicle: saline sonified 122 % of control | endpoint: median survival time, dose: 1170.0 mg/kg/injection, schedule: Q01DX001 (ip), vehicle: other 117 % of control | endpoint: median survival time, dose: 1170.0 mg/kg/injection, schedule: Q01DX001 (ip), vehicle: saline sonified 122 % of control | endpoint: median survival time, dose: 1300.0 mg/kg/injection, schedule: Q01DX001 (ip), vehicle: other 117 % of control | endpoint: median survival time, dose: 1300.0 mg/kg/injection, schedule: Q01DX001 (ip), vehicle: saline sonified 122 % of control | endpoint: median survival time, dose: 1444.0 mg/kg/injection, schedule: Q01DX001 (ip), vehicle: other 121 % of control | endpoint: median survival time, dose: 1444.0 mg/kg/injection, schedule: Q01DX001 (ip), vehicle: saline sonified 122 % of control | endpoint: median survival time, dose: 1604.0 mg/kg/injection, schedule: Q01DX001 (ip), vehicle: other 51 % of control | endpoint: median survival time, dose: 1782.0 mg/kg/injection, schedule: Q01DX001 (ip), vehicle: other 75 % of control

O=C1CCCC(c2ccccc2)O1 (configuration not stated)
inactive: endpoint: mean survival time, dose: 100.0 mg/kg/injection, schedule: Q04DX002 (ip), vehicle: Klucel (hydroxypropylcellulose) (HPC) 108 % of control | endpoint: mean survival time, dose: 200.0 mg/kg/injection, schedule: Q04DX002 (ip), vehicle: Klucel (hydroxypropylcellulose) (HPC) 101 % of control | endpoint: mean survival time, dose: 400.0 mg/kg/injection, schedule: Q04DX002 (ip), vehicle: Klucel (hydroxypropylcellulose) (HPC) 101 % of control

O=Cc1cc([N+](=O)[O-])ccc1Cl
inactive: [5] 101 % of control | endpoint: mean survival time, dose: 100.0 mg/kg/injection, schedule: Q01DX009 (ip), vehicle: saline with Tween-80 100 % of control | [1] 96 % of control | endpoint: mean survival time, dose: 200.0 mg/kg/injection, schedule: Q01DX009 (ip), vehicle: saline with Tween-80 95 % of control | [2] 97 % of control

NC1=NCC(CSS(=O)(=O)O)S1 (configuration not stated)
inactive: endpoint: mean survival time, dose: 5.0 mg/kg/injection, schedule: Q01DX009 (ip), vehicle: saline 95 % of control | endpoint: mean survival time, dose: 10.0 mg/kg/injection, schedule: Q01DX001 (ip), vehicle: saline 101 % of control | endpoint: mean survival time, dose: 10.0 mg/kg/injection, schedule: Q01DX009 (ip), vehicle: saline 89 % of control | endpoint: mean survival time, dose: 10.0 mg/kg/injection, schedule: Q04DX003 (ip), vehicle: saline 96 % of control | endpoint: mean survival time, dose: 20.0 mg/kg/injection, schedule: Q01DX001 (ip), vehicle: saline 93 % of control | endpoint: mean survival time, dose: 20.0 mg/kg/injection, schedule: Q01DX009 (ip), vehicle: saline 106 % of control | endpoint: mean survival time, dose: 20.0 mg/kg/injection, schedule: Q04DX003 (ip), vehicle: saline 105 % of control | endpoint: mean survival time, dose: 29.0 mg/kg/injection, schedule: Q01DX009 (ip), vehicle: saline 90 % of control | endpoint: mean survival time, dose: 40.0 mg/kg/injection, schedule: Q01DX001 (ip), vehicle: saline 95 % of control | endpoint: mean survival time, dose: 40.0 mg/kg/injection, schedule: Q04DX003 (ip), vehicle: saline 97 % of control

CC1(C)CC(=O)C(C)(C)C(=O)C1
inactive: endpoint: mean survival time, dose: 6.25 mg/kg/injection, schedule: Q01DX009 (ip), vehicle: saline with Tween-80 103 % of control | [4] 98 % of control | endpoint: mean survival time, dose: 25.0 mg/kg/injection, schedule: Q04DX003 (ip), vehicle: saline with Tween-80 102 % of control

O=C(OCc1cnccn1)c1cnccn1
inactive: endpoint: mean survival time, dose: 100.0 mg/kg/injection, schedule: Q01DX001 (ip), vehicle: saline 107 % of control | endpoint: mean survival time, dose: 200.0 mg/kg/injection, schedule: Q01DX001 (ip), vehicle: saline 94 % of control | endpoint: mean survival time, dose: 400.0 mg/kg/injection, schedule: Q01DX001 (ip), vehicle: saline 100 % of control

O=C(O)CCCCCN1C(=O)c2cccnc2C1=O
inactive: endpoint: mean survival time, dose: 75.0 mg/kg/injection, schedule: Q04DX003 (ip), vehicle: carboxymethylcellulose (CMC) 103 % of control | endpoint: mean survival time, dose: 150.0 mg/kg/injection, schedule: Q04DX003 (ip), vehicle: carboxymethylcellulose (CMC) 97 % of control | endpoint: mean survival time, dose: 300.0 mg/kg/injection, schedule: Q04DX003 (ip), vehicle: carboxymethylcellulose (CMC) 98 % of control

O=C(O)c1ccc(CCCCc2ccccc2)cc1
inactive: endpoint: mean survival time, dose: 25.0 mg/kg/injection, schedule: Q01DX001 (ip), vehicle: saline with Tween-80 103 % of control | endpoint: mean survival time, dose: 50.0 mg/kg/injection, schedule: Q01DX001 (ip), vehicle: saline with Tween-80 121 % of control | endpoint: mean survival time, dose: 100.0 mg/kg/injection, schedule: Q01DX001 (ip), vehicle: saline with Tween-80 107 % of control
